Assays:
pigweed = experiment: Test B pre-/postemergence herbicide test; assay type: in vivo, Amaranthus retroflexus; conditions: for Pigweed plant response rating (0 to 100 scale) / Plant response rating, Pigweed: 0 = no effect, 100 = complete control, preemergence; for Plant response rating, Pigweed / Pigweed plant response rating: visual rating; for Pigweed plant response rating: postemergence, scale 0 (no effect) to 100 (complete control)
Procedure, shortened: (§1)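 Test chemicals in a non-phytotoxic solvent mixture with surfactant were applied preemergence to seeded species and postemergence to plants 2-18 cm tall (1- to 4-leaf stage); rice and barnyardgrass were also tested in a flooded paddy at the 2-leaf stage. Visual rating versus controls after 13-15 days in greenhouse, scale 0 (no effect) to 100 (complete control).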

Surinam grass = experiment: Test B pre-/postemergence herbicide test; assay type: in vivo, Urochloa decumbens; conditions: for Surinam Grass plant response rating (0 to 100 scale) / Plant response rating, Surinam Grass: 0 = no effect, 100 = complete control, preemergence; for Plant response rating, Surinam Grass / Surinam Grass plant response rating: visual rating; for Surinam Grass plant response rating: postemergence, scale 0 (no effect) to 100 (complete control)
Procedure, shortened: as §1

velvetleaf = experiment: Test B pre-/postemergence herbicide test; assay type: in vivo, Abutilon theophrasti; conditions: for Velvetleaf plant response rating (0 to 100 scale) / Plant response rating, Velvetleaf: 0 = no effect, 100 = complete control, preemergence; for Plant response rating, Velvetleaf / Velvetleaf plant response rating: visual rating; for Velvetleaf plant response rating: postemergence, scale 0 (no effect) to 100 (complete control)
Procedure, shortened: as §1

large crabgrass = experiment: Test B pre-/postemergence herbicide test; assay type: in vivo, Digitaria sanguinalis; conditions: for Crabgrass, Large plant response rating (0 to 100 scale) / Plant response rating, Crabgrass, Large: 0 = no effect, 100 = complete control, preemergence; for Plant response rating, Crabgrass, Large / Crabgrass, Large plant response rating: visual rating; for Crabgrass, Large plant response rating: postemergence, scale 0 (no effect) to 100 (complete control)
Procedure, shortened: as §1

corn = experiment: Test B pre-/postemergence herbicide test; assay type: in vivo, Zea mays; conditions: for Corn plant response rating (0 to 100 scale) / Plant response rating, Corn: 0 = no effect, 100 = complete control, preemergence; for Plant response rating, Corn / Corn plant response rating: visual rating; for Corn plant response rating: postemergence, scale 0 (no effect) to 100 (complete control)
Procedure, shortened: as §1

wheat = experiment: Test B postemergence herbicide test; assay type: in vivo, Triticum aestivum; design: key to Wheat plant response rating: 0 = no effect, 100 = complete control; conditions: postemergence, visual rating, scale 0 (no effect) to 100 (complete control)
Procedure, shortened: (§2)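 Formulated test chemicals went onto postemergence plants measuring 2 to 18 cm, at one to four leaves. For the paddy assay, species had reached two leaves. Scoring took place 13–15 days later by eye, relative to untreated plants, using 0 for no effect up to 100 for full control.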

barnyardgrass [1] = experiment: Test B pre-/postemergence herbicide test; assay type: in vivo, Echinochloa crus-galli; conditions: for Barnyardgrass plant response rating (0 to 100 scale) / Plant response rating, Barnyardgrass: 0 = no effect, 100 = complete control, preemergence; for Plant response rating, Barnyardgrass / Barnyardgrass plant response rating: visual rating; for Barnyardgrass plant response rating: postemergence, scale 0 (no effect) to 100 (complete control)
Procedure, shortened: (§3)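 Visual rating, 0 (no effect) to 100 (complete control), versus untreated controls after 13–15 d in greenhouse. Pre- and postemergence applications (postemergence plants 2–18 cm, 1–4 leaves); flooded paddy arm at 2-leaf stage. Compounds in non-phytotoxic solvent plus surfactant.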

[2] = tested on: small flower umbrella sedge; experiment: Test B flooded paddy test; assay type: in vivo, Cyperus difformis; conditions: 1000 g ai/ha, visual rating, scale 0 to 100 (0 no effect, 100 complete control), 13 to 15 days
Procedure, shortened: (§4)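 Visual ratings, 0 (no effect) to 100 (complete control), made versus controls after 13–15 d greenhouse. Paddy plants treated at 2-leaf stage; postemergence plants at 1- to 4-leaf stage, 2–18 cm tall.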

cocklebur = experiment: Test B pre-/postemergence herbicide test; assay type: in vivo, Xanthium strumarium; conditions: for Cocklebur plant response rating (0 to 100 scale) / Plant response rating, Cocklebur: 0 = no effect, 100 = complete control, preemergence; for Plant response rating, Cocklebur / Cocklebur plant response rating: visual rating; for Cocklebur plant response rating: postemergence, scale 0 (no effect) to 100 (complete control)
Procedure, shortened: as §3

barnyardgrass [3] = experiment: Test B flooded paddy test; assay type: in vivo, Echinochloa crus-galli; conditions: 1000 g ai/ha, visual rating, scale 0 to 100 (0 no effect, 100 complete control), 13 to 15 days
Procedure, shortened: as §4

rice = experiment: Test B flooded paddy test; assay type: in vivo, Oryza sativa; conditions: 1000 g ai/ha, visual rating, scale 0 to 100 (0 no effect, 100 complete control), 13 to 15 days
Procedure, shortened: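 Paddy species grown to the 2-leaf stage under flooding; blackgrass sprayed postemergence at 2–18 cm (1- to 4-leaf stage). Plants kept in a greenhouse for 13 to 15 days, then visually rated against controls on 0 (no effect) to 100 (complete control).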

giant foxtail = experiment: Test B pre-/postemergence herbicide test; assay type: in vivo, Setaria faberi; conditions: for Foxtail, Giant plant response rating (0 to 100 scale) / Plant response rating, Foxtail, Giant: 0 = no effect, 100 = complete control, preemergence; for Plant response rating, Foxtail, Giant / Foxtail, Giant plant response rating: visual rating; for Foxtail, Giant plant response rating: postemergence, scale 0 (no effect) to 100 (complete control)
Procedure, shortened: as §1

wild oat = experiment: Test B postemergence herbicide test; assay type: in vivo, Avena fatua; conditions: postemergence, visual rating, scale 0 (no effect) to 100 (complete control)
Procedure, shortened: as §2

lambsquarters = experiment: Test B pre-/postemergence herbicide test; assay type: in vivo, Chenopodium album; conditions: for Lambsquarters plant response rating (0 to 100 scale) / Plant response rating, Lambsquarters: 0 = no effect, 100 = complete control, preemergence; for Plant response rating, Lambsquarters / Lambsquarters plant response rating: visual rating; for Lambsquarters plant response rating: postemergence, scale 0 (no effect) to 100 (complete control)
Procedure, shortened: as §1

morningglory = experiment: Test B pre-/postemergence herbicide test; assay type: in vivo, Ipomoea coccinea; conditions: for Morningglory plant response rating (0 to 100 scale) / Plant response rating, Morningglory: 0 = no effect, 100 = complete control, preemergence; for Plant response rating, Morningglory / Morningglory plant response rating: visual rating; for Morningglory plant response rating: postemergence, scale 0 (no effect) to 100 (complete control)
Procedure, shortened: as §3

CCNC(=O)c1cccc(NC(=O)c2sc(C(C)(C)C)nc2CC)n1 [Compound 213]
30: Pigweed plant response rating (0 to 100 scale) (pigweed; 125 g ai/ha) | Crabgrass, Large plant response rating (large crabgrass; 500 g ai/ha) | Wheat plant response rating (wheat; 500 g ai/ha) | Foxtail, Giant plant response rating (giant foxtail; 500 g ai/ha) | Lambsquarters plant response rating (0 to 100 scale) (lambsquarters; 125 g ai/ha) | Morningglory plant response rating (morningglory; 500 g ai/ha)
0: Pigweed plant response rating (pigweed; 125 g ai/ha) | Surinam Grass plant response rating (0 to 100 scale) (Surinam grass; 125 g ai/ha) | Velvetleaf plant response rating (0 to 100 scale) (velvetleaf; 125 g ai/ha) | Velvetleaf plant response rating (velvetleaf; 125 g ai/ha) | Crabgrass, Large plant response rating (large crabgrass; 125 g ai/ha) | Corn plant response rating (0 to 100 scale) (corn; 125 g ai/ha) | Corn plant response rating (corn; 125 g ai/ha) | Wheat plant response rating (wheat; 125 g ai/ha) | Barnyardgrass plant response rating (barnyardgrass [1]; 125 g ai/ha) | Cocklebur plant response rating (0 to 100 scale) (cocklebur; 125 g ai/ha) | Plant response rating, Cocklebur (cocklebur; 500 g ai/ha) | Cocklebur plant response rating (cocklebur; 125 g ai/ha) | Foxtail, Giant plant response rating (giant foxtail; 125 g ai/ha) | Lambsquarters plant response rating (lambsquarters; 125 g ai/ha) | Morningglory plant response rating (0 to 100 scale) (morningglory; 125 g ai/ha)
10: Surinam Grass plant response rating (Surinam grass; 125 g ai/ha) | Crabgrass, Large plant response rating (0 to 100 scale) (large crabgrass; 125 g ai/ha) | Plant response rating, Corn (corn; 500 g ai/ha) | Barnyardgrass plant response rating (0 to 100 scale) (barnyardgrass [1]; 125 g ai/ha) | Oat, Wild plant response rating (wild oat; 125 g ai/ha) | Morningglory plant response rating (morningglory; 125 g ai/ha)
20: Pigweed plant response rating (pigweed; 500 g ai/ha) | Surinam Grass plant response rating (Surinam grass; 500 g ai/ha) | Corn plant response rating (corn; 500 g ai/ha) | Foxtail, Giant plant response rating (0 to 100 scale) (giant foxtail; 125 g ai/ha) | Oat, Wild plant response rating (wild oat; 500 g ai/ha) | Plant response rating, Morningglory (morningglory; 500 g ai/ha)
90: Plant response rating, Foxtail, Giant (giant foxtail; 500 g ai/ha)
70: Plant response rating, Crabgrass, Large (large crabgrass; 500 g ai/ha) | Cocklebur plant response rating (cocklebur; 500 g ai/ha)
100: Plant response rating, Pigweed (pigweed; 500 g ai/ha) | Plant response rating, Lambsquarters (lambsquarters; 500 g ai/ha)
40: Plant response rating, Surinam Grass (Surinam grass; 500 g ai/ha) | Rice plant response rating (rice) | Lambsquarters plant response rating (lambsquarters; 500 g ai/ha)
60: Velvetleaf plant response rating (velvetleaf; 500 g ai/ha) | Barnyardgrass plant response rating (barnyardgrass [3])
50: Barnyardgrass plant response rating (barnyardgrass [1]; 500 g ai/ha)
80: Plant response rating, Velvetleaf (velvetleaf; 500 g ai/ha) | Plant response rating, Barnyardgrass (barnyardgrass [1]; 500 g ai/ha) | Sedge, Umbrella plant response rating [2]

CCc1nn(C(C)(C)C)cc1C(=O)Nc1cc(C(=O)N(CC)CC)ccc1F [Compound 223]
100: Plant response rating, Pigweed (pigweed; 500 g ai/ha) | Plant response rating, Velvetleaf (velvetleaf; 500 g ai/ha) | Plant response rating, Crabgrass, Large (large crabgrass; 500 g ai/ha) | Plant response rating, Lambsquarters (lambsquarters; 500 g ai/ha)
0: Wheat plant response rating (wheat; 125 g ai/ha) | Wheat plant response rating (wheat; 500 g ai/ha) | Cocklebur plant response rating (0 to 100 scale) (cocklebur; 125 g ai/ha) | Oat, Wild plant response rating (wild oat; 125 g ai/ha)
40: Barnyardgrass plant response rating (barnyardgrass [3]) | Morningglory plant response rating (morningglory; 125 g ai/ha)
80: Plant response rating, Corn (corn; 500 g ai/ha) | Plant response rating, Barnyardgrass (barnyardgrass [1]; 500 g ai/ha) | Sedge, Umbrella plant response rating [2] | Plant response rating, Foxtail, Giant (giant foxtail; 500 g ai/ha) | Lambsquarters plant response rating (0 to 100 scale) (lambsquarters; 125 g ai/ha) | Lambsquarters plant response rating (lambsquarters; 500 g ai/ha) | Morningglory plant response rating (morningglory; 500 g ai/ha)
50: Crabgrass, Large plant response rating (0 to 100 scale) (large crabgrass; 125 g ai/ha)
30: Velvetleaf plant response rating (0 to 100 scale) (velvetleaf; 125 g ai/ha) | Cocklebur plant response rating (cocklebur; 500 g ai/ha) | Oat, Wild plant response rating (wild oat; 500 g ai/ha) | Plant response rating, Morningglory (morningglory; 500 g ai/ha)
60: Pigweed plant response rating (pigweed; 125 g ai/ha) | Lambsquarters plant response rating (lambsquarters; 125 g ai/ha)
10: Surinam Grass plant response rating (Surinam grass; 125 g ai/ha) | Surinam Grass plant response rating (Surinam grass; 500 g ai/ha) | Crabgrass, Large plant response rating (large crabgrass; 125 g ai/ha) | Corn plant response rating (0 to 100 scale) (corn; 125 g ai/ha) | Corn plant response rating (corn; 125 g ai/ha) | Barnyardgrass plant response rating (barnyardgrass [1]; 125 g ai/ha) | Cocklebur plant response rating (cocklebur; 125 g ai/ha) | Foxtail, Giant plant response rating (0 to 100 scale) (giant foxtail; 125 g ai/ha) | Foxtail, Giant plant response rating (giant foxtail; 125 g ai/ha) | Morningglory plant response rating (0 to 100 scale) (morningglory; 125 g ai/ha)
70: Pigweed plant response rating (pigweed; 500 g ai/ha) | Rice plant response rating (rice)
20: Surinam Grass plant response rating (0 to 100 scale) (Surinam grass; 125 g ai/ha) | Velvetleaf plant response rating (velvetleaf; 125 g ai/ha) | Velvetleaf plant response rating (velvetleaf; 500 g ai/ha) | Crabgrass, Large plant response rating (large crabgrass; 500 g ai/ha) | Corn plant response rating (corn; 500 g ai/ha) | Barnyardgrass plant response rating (0 to 100 scale) (barnyardgrass [1]; 125 g ai/ha) | Barnyardgrass plant response rating (barnyardgrass [1]; 500 g ai/ha) | Plant response rating, Cocklebur (cocklebur; 500 g ai/ha) | Foxtail, Giant plant response rating (giant foxtail; 500 g ai/ha)
90: Pigweed plant response rating (0 to 100 scale) (pigweed; 125 g ai/ha) | Plant response rating, Surinam Grass (Surinam grass; 500 g ai/ha)

Reference: patent US20060069132A1, “Azolecarboxamide herbicides” (priority 2004, published 2006)
